Some test systems named below: UO-31 renal; MDA-MB-231 breast; NCI-H23 lung; RPMI-8226 leukemia; CAKI-1 renal; HCC-2998 colon; HT29 colon; CCRF-CEM leukemia; SK-MEL-5 melanoma; IGROV1 ovarian; NCI/ADR-RES ovarian; UACC-257 melanoma; SF-268 CNS; NCI-H522 lung; HCT-116 colon; SNB-19 CNS; 786-0 renal; UACC-62 melanoma; MDA-N; HOP-92 NSCLC.
What all share (assay): DTP human tumour cell line panel, 48 h

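Briefly, cells in 96-well plates were exposed to five compound concentrations for 48 h, and endpoints were estimated by linear interpolation. TGI: total growth inhibition.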

Turning to `C/C(=N/NC(=S)N1CCCCCC1)c1ccccc1O`, the TGI – broadly, the concentration at which net growth stops – with UO-31 renal was greater than 88.3 µM; with MDA-MB-231 breast, greater than 66.8 µM; in the assay on NCI-H23 lung it was greater than 100 µM; in the assay with RPMI-8226 leukemia it was 40.4 µM; with CAKI-1 renal, greater than 96.2 µM; in the assay with HCC-2998 colon, greater than 42.1 µM. For the same compound, the total growth inhibition concentration (TGI) was 39.7 µM in the assay with HT29 colon; greater than 30.8 µM in the assay on CCRF-CEM leukemia; greater than 37.7 µM in the assay on SK-MEL-5 melanoma; greater than 39.7 µM in the assay on IGROV1 ovarian; 8.35 µM in the assay on NCI/ADR-RES ovarian; 30.9 µM with UACC-257 melanoma. Also, the TGI was greater than 24.5 µM in the assay with SF-268 CNS; greater than 53.2 µM in the assay with NCI-H522 lung; greater than 100 µM with HCT-116 colon; greater than 100 µM with SNB-19 CNS; 39.3 µM in the assay with 786-0 renal; 17.7 µM with UACC-62 melanoma. Further, the total growth inhibition concentration (TGI) in the assay with MDA-N and in the assay on HOP-92 NSCLC was greater than 100 µM throughout.

Turning to `CCOC(=O)c1c(Nc2ccccc2)sc2cccnc12`, the TGI with UO-31 renal is 43.4 µM; in the assay on MDA-MB-231 breast it was greater than 83.5 µM; with NCI-H23 lung, 67.2 µM; in the assay on RPMI-8226 leukemia, 58.3 µM; in the assay with CAKI-1 renal, 98.4 µM; in the assay on HCC-2998 colon it was 77.8 µM. In addition, the TGI with HT29 colon turned out to be 49.6 µM; in the assay on CCRF-CEM leukemia, 71.5 µM; with SK-MEL-5 melanoma, 24.3 µM; in the assay on IGROV1 ovarian it was 47.4 µM; in the assay on NCI/ADR-RES ovarian, 67.8 µM; in the assay with UACC-257 melanoma, 51.1 µM. Further, the TGI in the assay with SF-268 CNS was 64.1 µM; in the assay on NCI-H522 lung it was greater than 58.4 µM; in the assay with HCT-116 colon, 46.7 µM; with SNB-19 CNS, greater than 86.4 µM; in the assay with 786-0 renal, 48.3 µM; with UACC-62 melanoma, 45.3 µM. The TGI in the assay with MDA-N was 58.3 µM; in the assay with HOP-92 NSCLC, greater than 29.3 µM.

With `Cc1cc2c(cc1C)C(=O)c1ncccc1C2=O`, the total growth inhibition concentration (TGI) is greater than 100 µM with UO-31 renal; 67.1 µM with MDA-MB-231 breast; 50.9 µM with NCI-H23 lung; greater than 100 µM in the assay with RPMI-8226 leukemia; greater than 100 µM in the assay on CAKI-1 renal; greater than 100 µM with HCC-2998 colon. For the same compound, the TGI in the assay with HT29 colon is greater than 100 µM; in the assay on CCRF-CEM leukemia it was greater than 100 µM; in the assay on SK-MEL-5 melanoma, 23.2 µM; with IGROV1 ovarian, greater than 100 µM; in the assay with NCI/ADR-RES ovarian, 70.8 µM; with UACC-257 melanoma, 46.3 µM. Further, the TGI was greater than 100 µM in the assay on SF-268 CNS; 43.9 µM in the assay on NCI-H522 lung; 61.1 µM with HCT-116 colon; greater than 100 µM with SNB-19 CNS; greater than 100 µM with 786-0 renal; greater than 100 µM in the assay on UACC-62 melanoma. Besides, the TGI was 36.2 µM in the assay with MDA-N and greater than 100 µM in the assay on HOP-92 NSCLC.

In the case of `C/C=C1/CN2CCC34C5=CC(=O)C(c6cc7c(cc6OC)N(C)C6=C(C(=O)OC)CC8(CC)CCCN9CCC67C98)=CC5=NC23CCC1C4C(=O)OC` (stereo not given), the TGI in the assay with UO-31 renal was 24.6 µM; in the assay with MDA-MB-231 breast, 23.5 µM; in the assay with NCI-H23 lung, 28.2 µM; with RPMI-8226 leukemia it was 16.6 µM; in the assay with CAKI-1 renal it was 21.9 µM; in the assay with HCC-2998 colon it was 29.5 µM. Besides, the TGI in the assay on HT29 colon came to 28 µM; in the assay on CCRF-CEM leukemia it was 5.99 µM; in the assay on SK-MEL-5 melanoma, 28.5 µM; in the assay with IGROV1 ovarian, 31.9 µM; with NCI/ADR-RES ovarian, 54.3 µM; in the assay on UACC-257 melanoma, 27.1 µM. The TGI in the assay on SF-268 CNS was determined as 33.1 µM; with NCI-H522 lung it was 23.7 µM; in the assay on HCT-116 colon it was 23.1 µM; in the assay with SNB-19 CNS, 30.3 µM; in the assay on 786-0 renal, 24.9 µM; with UACC-62 melanoma it was 31.1 µM. Further, the TGI in the assay on MDA-N stood at 27 µM; in the assay on HOP-92 NSCLC it was 20.8 µM.

Turning to `N#Cc1cc2c(n(C3OC(CO)C(O)C(O)C3O)c1=S)CCCCC2` (stereo not given), the total growth inhibition concentration (TGI) with UO-31 renal, in the assay on MDA-MB-231 breast, in the assay with NCI-H23 lung, in the assay on RPMI-8226 leukemia, in the assay on CAKI-1 renal and with HCC-2998 colon was greater than 100 µM throughout. The TGI with HT29 colon, in the assay on CCRF-CEM leukemia, in the assay with SK-MEL-5 melanoma, in the assay with IGROV1 ovarian, in the assay with NCI/ADR-RES ovarian and with UACC-257 melanoma was greater than 100 µM each time. Further, the TGI in the assay with SF-268 CNS, in the assay on NCI-H522 lung, in the assay with HCT-116 colon, in the assay with SNB-19 CNS, with 786-0 renal and with UACC-62 melanoma was greater than 100 µM throughout. The total growth inhibition concentration (TGI) in the assay on MDA-N and with HOP-92 NSCLC was greater than 100 µM each time.

In the case of `C/C(=C/CNc1ncnc2c1ncn2CCC(=O)O)CO`, the TGI in the assay with UO-31 renal, in the assay on MDA-MB-231 breast, in the assay with NCI-H23 lung, with RPMI-8226 leukemia, with CAKI-1 renal and with HCC-2998 colon was greater than 100 µM in each case. Moreover, the TGI in the assay on HT29 colon, in the assay on CCRF-CEM leukemia, in the assay with SK-MEL-5 melanoma, in the assay on IGROV1 ovarian, with NCI/ADR-RES ovarian and in the assay on UACC-257 melanoma was greater than 100 µM in each case. Also, the TGI with SF-268 CNS, in the assay on NCI-H522 lung, in the assay on HCT-116 colon, in the assay on SNB-19 CNS, in the assay with 786-0 renal and in the assay on UACC-62 melanoma was greater than 100 µM each time. Moreover, the TGI in the assay with MDA-N and in the assay on HOP-92 NSCLC was greater than 100 µM each time.
